# Measurements taken from patent publication US20230093861A1, “RAPAMYCIN ANALOGS AS MTOR INHIBITORS” (Revolution Medicines, Inc., priority 2017, published 2023).
# Read-outs that look alike come from different tables or passages of the source.
# What was measured:
# [1] = system: P-P70S6K (T389); experiment: Cell based AlphaLISA assay, inhibition of P-P70S6K (T389) (mTORC1 substrate phosphorylation) in MDA-MB-468 cells; details: Homo sapiens, 4 h, AlphaLISA, two to four hours at 37° C., read-out: pIC50 for Inhibition of mTORC1 and mTORC2 Substrate Phosphorylation, P-P70S6K-(T389) (converted)
# In short: (§1)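 Cells are exposed to inhibitor, then the assay buffer is taken off and kit lysis buffer added. Lysates undergo AlphaLISA SureFire Ultra detection in duplicate.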
# [2] = system: P-Akt (S473); experiment: Cell based AlphaLISA assay, inhibition of P-Akt (S473) (mTORC2 substrate phosphorylation) in MDA-MB-468 cells; details: Homo sapiens, AlphaLISA, two to four hours at 37° C., read-out: pIC50 for Inhibition of mTORC1 and mTORC2 Substrate Phosphorylation, p-AKT 1/2/3 -(S473) (converted)
# In short: as §1
# [3] = system: P-4E-BP1 (T37/46); experiment: Cell based AlphaLISA assay, inhibition of P-4E-BP1 (T37/46) (mTORC1 substrate phosphorylation) in MDA-MB-468 cells; details: Homo sapiens, AlphaLISA, two to four hours at 37° C., read-out: pIC50 for Inhibition of mTORC1 and mTORC2 Substrate Phosphorylation, P-4E-BP1-(T37/46) (converted)
# In short: as §1
Compound,IC50 [1] [nM],"IC50 ([2]; MDA-MB-468, 4 h) [nM]","IC50 ([3]; MDA-MB-468, 4 h) [nM]",IC50 ([2]; 4 h) [nM],IC50 ([3]; 4 h) [nM]
CO[C@H]1C[C@@H]2CC[C@@H](C)[C@@](O)(O2)C(=O)C(=O)N2CCCC[C@H]2C(=O)O[C@H]([C@H](C)C[C@@H]2CC[C@@H](OCc3cccc(-c4cnc(N5CCN(Cc6cn(CCOCCOCCOCCOCCOCCC(=O)NCCCCn7nc(-c8ccc9oc(N)nc9c8)c8c(N)ncnc87)nn6)C(CO)C5)nc4)c3)[C@H](OC)C2)CC(=O)[C@H](C)/C=C(\C)[C@@H](O)[C@@H](OC)C(=O)[C@H](C)C[C@H](C)/C=C/C=C/C=C/1C (stereo partly drawn) [Example 23],< 1,< 3.16,< 3.16,–,–
CO[C@H]1C[C@@H]2CC[C@@H](C)[C@@](O)(O2)C(=O)C(=O)N2CCCC[C@H]2C(=O)O[C@H]([C@H](C)C[C@@H]2CC[C@@H](OCCCCc3cn(CCOCCOCCOCCOCCOCCOCCOCCOCCC(=O)N4CCc5cc(Cn6nc(-c7ccc8oc(N)nc8c7)c7c(N)ncnc76)ccc5C4)nn3)[C@H](OC)C2)C[C@@H](OC)[C@H](C)/C=C(\C)[C@@H](O)[C@@H](OC)C(=O)[C@H](C)C[C@H](C)/C=C/C=C/C=C/1C [Example 92],< 1,–,–,31.6 to 1000,3.16 to 31.6
CO[C@H]1C[C@@H]2CC[C@@H](C)[C@@](O)(O2)C(=O)C(=O)N2CCCC[C@H]2C(=O)O[C@H]([C@H](C)C[C@@H]2CC[C@H](n3cc(CCCC(=O)NCCOCCOCCOCCC(=O)NCCOCCOCCOCCC(=O)NCCCCn4nc(-c5cc6cc(O)ccc6[nH]5)c5c(N)ncnc54)nn3)[C@H](OC)C2)C/C(=N/OCc2ccccc2)[C@H](C)/C=C(\C)[C@@H](O)[C@@H](OC)C(=O)[C@H](C)C[C@H](C)/C=C/C=C/C=C/1C [Example 175],> 1000,> 1000,> 1000,–,–
CO[C@H]1C[C@@H]2CC[C@@H](C)[C@@](O)(O2)C(=O)C(=O)N2CCCC[C@H]2C(=O)O[C@H]([C@H](C)C[C@@H]2CC[C@@H](OCCCCc3cn(CCOCCOCCOCCOCCNC(=O)CCC(=O)NCCCCn4nc(-c5ccc6oc(N)nc6c5)c5c(N)ncnc54)nn3)[C@H](OC)C2)CC(=O)[C@H](C)/C=C(\C)[C@@H](O)[C@@H](OC)C(=O)[C@H](C)C[C@H](C)/C=C/C=C/C=C/1C [Example 99],< 1,3.16 to 31.6,3.16 to 31.6,–,–
CO[C@H]1C[C@@H]2CC[C@@H](C)[C@@](O)(O2)C(=O)C(=O)N2CCCC[C@H]2C(=O)O[C@H]([C@H](C)C[C@@H]2CC[C@@H](OCCOCc3cn(CCOCCOCCOCCOCCOCCOCCC(=O)NCCCCn4nc(-c5ccc6oc(N)nc6c5)c5c(N(C)C)ncnc54)nn3)[C@H](OC)C2)CC(=O)[C@H](C)/C=C(\C)[C@@H](O)[C@@H](OC)C(=O)[C@H](C)C[C@H](C)/C=C/C=C/C=C/1C [Example 10],< 1,> 1000,> 1000,–,–
CO[C@H]1C[C@@H]2CC[C@@H](C)[C@@](O)(O2)C(=O)C(=O)N2CCCC[C@H]2C(=O)O[C@H]([C@H](C)C[C@@H]2CC[C@H](n3cc(CCCC(=O)NCCOCCOCCOCCC(=O)NCCOCCOCCC(=O)NCCCCn4nc(-c5ccc6oc(N)nc6c5)c5c(N)ncnc54)nn3)[C@H](OC)C2)C[C@@H](OC)[C@H](C)/C=C(\C)[C@@H](O)[C@@H](OC)C(=O)[C@H](C)C[C@H](C)/C=C/C=C/C=C/1C [Example 162],1 to 10,> 1000,31.6 to 1000,–,–
CO/N=C1/C[C@@H]([C@H](C)C[C@@H]2CC[C@H](n3cc(CCCC(=O)NCCOCCOCCOCCC(=O)NCCOCCOCCC(=O)NCCCCn4nc(-c5cc6cc(O)ccc6[nH]5)c5c(N)ncnc54)nn3)[C@H](OC)C2)OC(=O)[C@@H]2CCCCN2C(=O)C(=O)[C@]2(O)O[C@@H](CC[C@H]2C)C[C@H](OC)/C(C)=C/C=C/C=C/[C@@H](C)C[C@@H](C)C(=O)[C@H](OC)[C@H](O)/C(C)=C/[C@H]1C [Example 170],10 to 1000,> 1000,> 1000,–,–
CO[C@H]1C[C@@H]2CC[C@@H](C)[C@@](O)(O2)C(=O)C(=O)N2CCCC[C@H]2C(=O)O[C@H]([C@H](C)C[C@@H]2CC[C@H](n3cc(COC(=O)NCCOCCOCCOCCC(=O)NCCOCCOCCOCCOCCC(=O)NCCCCn4nc(-c5ccc6oc(N)nc6c5)c5c(N)ncnc54)nn3)[C@H](OC)C2)CC(=O)[C@H](C)/C=C(\C)[C@@H](O)[C@@H](OC)C(=O)[C@H](C)C[C@H](C)/C=C/C=C/C=C/1C [Example 124],1 to 10,3.16 to 31.6,3.16 to 31.6,–,–
CO[C@H]1C[C@@H]2CC[C@@H](C)[C@@](O)(O2)C(=O)C(=O)N2CCCC[C@H]2C(=O)O[C@H]([C@H](C)C[C@@H]2CC[C@H](n3cc(-c4cccc(C(=O)NCCOCCOCCOCCC(=O)NCCOCCOCCOCCOCCC(=O)NCCCCn5nc(-c6ccc7oc(N)nc7c6)c6c(N)ncnc65)c4)nn3)[C@H](OC)C2)CC(=O)[C@H](C)/C=C(\C)[C@@H](O)[C@@H](OC)C(=O)[C@H](C)C[C@H](C)/C=C/C=C/C=C/1C [Example 139],1 to 10,3.16 to 31.6,3.16 to 31.6,–,–
CO[C@H]1C[C@@H]2CC[C@@H](C)[C@@](O)(O2)C(=O)C(=O)N2CCCC[C@H]2C(=O)O[C@H]([C@H](C)C[C@@H]2CC[C@@H](OCCCCc3cn(CCOCCOCCOCCNC(=O)CCCCC(=O)NCCCCn4nc(-c5ccc6oc(N)nc6c5)c5c(N)ncnc54)nn3)[C@H](OC)C2)CC(=O)[C@H](C)/C=C(\C)[C@@H](O)[C@@H](OC)C(=O)[C@H](C)C[C@H](C)/C=C/C=C/C=C/1C [Example 102],< 1,3.16 to 31.6,3.16 to 31.6,–,–
CO[C@H]1C[C@@H]2CC[C@@H](C)[C@@](O)(O2)C(=O)C(=O)N2CCCC[C@H]2C(=O)O[C@H]([C@H](C)C[C@@H]2CC[C@H](n3cc(-c4cccc(C(=O)NCCOCCOCCOCCC(=O)NCCOCCOCCC(=O)NCCCCn5nc(-c6ccc7oc(N)nc7c6)c6c(N)ncnc65)c4)nn3)[C@H](OC)C2)CC(=O)[C@H](C)/C=C(\C)[C@@H](O)[C@@H](OC)C(=O)[C@H](C)C[C@H](C)/C=C/C=C/C=C/1C [Example 136],1 to 10,31.6 to 1000,3.16 to 31.6,–,–
CO/N=C1/C[C@@H]([C@H](C)C[C@@H]2CC[C@H](n3cc(COC(=O)NCCOCCOCCOCCC(=O)NCCOCCOCCC(=O)NCCCCn4nc(-c5cc6cc(O)ccc6[nH]5)c5c(N)ncnc54)nn3)[C@H](OC)C2)OC(=O)[C@@H]2CCCCN2C(=O)C(=O)[C@]2(O)O[C@@H](CC[C@H]2C)C[C@H](OC)/C(C)=C/C=C/C=C/[C@@H](C)C[C@@H](C)C(=O)[C@H](OC)[C@H](O)/C(C)=C/[C@H]1C [Example 152],10 to 1000,> 1000,> 1000,–,–
CO[C@H]1C[C@@H]2CC[C@@H](C)[C@@](O)(O2)C(=O)C(=O)N2CCCC[C@H]2C(=O)O[C@H]([C@H](C)C[C@@H]2CC[C@H](n3cc(COC(=O)NCCOCCOCCOCCC(=O)NCc4cnc(N5CCN(c6ncc(C(=O)NCCCCn7nc(-c8ccc9oc(N)nc9c8)c8c(N)ncnc87)cn6)CC5)nc4)nn3)[C@H](OC)C2)CC(=O)[C@H](C)/C=C(\C)[C@@H](O)[C@@H](OC)C(=O)[C@H](C)C[C@H](C)/C=C/C=C/C=C/1C [Example 183],< 1,3.16 to 31.6,< 3.16,–,–
CO[C@H]1C[C@@H]2CC[C@@H](C)[C@@](O)(O2)C(=O)C(=O)N2CCCC[C@H]2C(=O)O[C@H]([C@H](C)C[C@@H]2CC[C@@H](OCCC(C)(C)Cc3cn(CCOCCOCCOCCOCCOCCOCCC(=O)NCCCCn4nc(-c5ccc6oc(N)nc6c5)c5c(N)ncnc54)nn3)[C@H](OC)C2)CC(=O)[C@H](C)/C=C(\C)[C@@H](O)[C@@H](OC)C(=O)[C@H](C)C[C@H](C)/C=C/C=C/C=C/1C [Example 59],< 1,3.16 to 31.6,< 3.16,–,–
CO[C@H]1C[C@@H]2CC[C@@H](C)[C@@](O)(O2)C(=O)C(=O)N2CCCC[C@H]2C(=O)O[C@H]([C@H](C)C[C@@H]2CC[C@@H](OCc3cccc(-c4cnc(N5CCN(Cc6cn(CCOCCOCCOCCOCCOCCC(=O)NCCCCn7nc(-c8ccc9oc(N)nc9c8)c8c(N)ncnc87)nn6)CC5)nc4)c3)[C@H](OC)C2)CC(=O)[C@H](C)/C=C(\C)[C@@H](O)[C@@H](OC)C(=O)[C@H](C)C[C@H](C)/C=C/C=C/C=C/1C [Example 20],< 1,3.16 to 31.6,< 3.16,–,–
CO[C@H]1C[C@@H]2CC[C@@H](C)[C@@](O)(O2)C(=O)C(=O)N2CCCC[C@H]2C(=O)O[C@H]([C@H](C)C[C@@H]2CC[C@H](n3nncc3-c3cccc(-c4cnc(N5CCN(S(=O)(=O)CCc6cn(CCOCCOCCOCCC(=O)NCCCCn7nc(-c8ccc9oc(N)nc9c8)c8c(N)ncnc87)nn6)CC5)nc4)c3)[C@H](OC)C2)CC(=O)[C@H](C)/C=C(\C)[C@@H](O)[C@@H](OC)C(=O)[C@H](C)C[C@H](C)/C=C/C=C/C=C/1C [Example 35],< 1,3.16 to 31.6,< 3.16,–,–
